The values below come from patent US20230257703A1, “NANOSCALE POLYMERIC MICELLAR SCAFFOLDS FOR RAPID AND EFFICIENT ANTIBODY PRODUCTION” (Iowa State University Research Foundation, Inc., priority 2020, published 2023).

In assay [1] the test system is murine splenic B cells (CD19+). Nature of the assay: Nur77 expression in B cells by flow cytometry (BCR engagement). Format: cell-based, mice. To be noted: micelle-Ag 10 µg/mL each component, LPS 0.5 µg/mL, anti-IgM F(ab′)2 10 µg/mL. The text has this: B cell proliferation was detected using in vitro labeling of cells with CFSE and analysis by flow cytometry. Distinct generations of proliferating cells can be monitored by dilutions of CFSE stain on the cells as viewed on the flow cytometry plots. For the flow cytometry procedure, the cells were transferred into polystyrene FACS tubes and labelled with Zombie Aqua dye for tracking viable cells post-stimulation using manufacturer’s instructions. […] For intracellular staining of Nur77 antibody, following surface staining, cells were washed with PBS and then fixed with 4% p-formaldehyde. After washing the cells again with PBS, 0.1% Triton X-100 was used for permeabilization, and following that, Nur77 Ab at a 1:50 dilution was used to stain the cells. After the staining, cells were washed in FACS buffer to remove excess dye and samples were fixed prior to analysis. The flow cytometry data was collected on FACSCanto II (BD Bioscience, NJ) and analyzed using FlowJo (FlowJo LLC, Ashland, CA).

The subject of assay [2] is splenic B cells of Ighel Tg mice (BCRs specific to HEL). Nature of the assay: CFSE B cell proliferation and viability, splenic cells of Ighel Tg mice. The format is cell-based. The conditions noted are these: 10 µg/mL, 4 days.

Consider lipopolysaccharide [LPS], for which, in assay [1], the Nur77 induction entry was “did not trigger Nur77 induction”. Regarding hen egg white lysozyme [HEL], the “B cell proliferation (CFSE^lo peaks)” value in assay [2] is on record as “small peak with some proliferation”.
